Measured values as given in patent publication US20150018361A1, “ANTI-TUMOR ACTIVITY OF REDUCED FOLATES LIKE METHYLENE-TETRAHYDROFOLATE” (ISOFOL MEDICAL AB, priority 2012, published 2015).
“Also recorded” adds a separate entry of the source.

Legend:
[1] = in the body; no species or test given; cited from earlier work
[2] = system: HCT116 colorectal carcinoma xenograft; assay: Anti-tumoral efficacy in the HCT116 colorectal carcinoma xenograft model (tumor volume); format: in vivo, female NCr nu/nu mice; details: intraperitoneal, 45 mg/kg or 1.7 mg/kg qd x 21, both high and low dose
Description: Purpose: To determine the anti-tumoral efficacy of [6R]-methylene-THF in the HCT116 colorectal carcinoma xenograft model. The HCT116 colorectal carcinoma cell line is sensitive to 5-FU and its analog capecitabine.
(§1) Study design: A total of 30 female NCr nu/nu mice (10 per group) at the age of 8-12 weeks were injected with 5×10^6 HCT116 tumor cells in 0% Matrigel sc in flank. When the tumors reached an average size of […] they were administered with intraperitoneal injections of vehicle or [6R]-methylene-THF (Modufolin®), according to the schedule in table 1. Animals were monitored individually. The endpoint of the experiment was when a tumor weight of 1300 mm3 or 65 days was reached, whichever came first. Responders could be followed longer. When the endpoint was reached, the animals were euthanized. Body weight (bw) (g) and tumor volume (mm3) was measured on days 1, 2 (bw only), 3 (bw only), 4, 5 (bw only), 7, 11, 14, 18, 21, 25, 28, 32, 35, 39, 42, 49, 53, 56, 60 and 63.

[3] = Body weight development / tolerability in the HCT116 xenograft study; format: in vivo, female NCr nu/nu mice; details: intraperitoneal
Description: as §1
Body weight gives an indication on how severe the side effects of the treatment are, poor development of body weight indicating more adverse side effects.

| SMILES | half life [1] | anti-tumor activity (mean tumor volume over time compared to control) [2] | effect on animal weight ([3]; high-dose (45 mg/kg, qd x 21)) | body weight development compared to the vehicle group ([3]; qd x 21, both dose groups overall) | effect on animal weight ([3]; low-dose (1.7 mg/kg, qd x 21)) |
| --- | --- | --- | --- | --- | --- |
| CN1c2c(nc(N)[nH]c2=O)NCC1CNc1ccc(C(=O)N[C@@H](CCC(=O)O)C(=O)O)cc1 (stereo partly shown) [methyl-THF, 5-methyl-tetrahydrofolic acid] | approximately 5 hours |  |  |  |  |
| Nc1nc2c(c(=O)[nH]1)NC(CNc1ccc(C(=O)N[C@@H](CCC(=O)O)C(=O)O)cc1)CN2 (stereo partly shown) [THF, tetrahydrofolic acid] | approximately 30 min |  |  |  |  |
| Nc1nc2c(c(=O)[nH]1)N1CN(c3ccc(C(=O)N[C@@H](CCC(=O)O)C(=O)O)cc3)CC1CN2 (stereo partly shown) [methylene-THF, 5,10-methylene-tetrahydrofolic acid] | approximately 20 min |  |  |  |  |
| Nc1nc2c(c(=O)[nH]1)N1CN(c3ccc(C(=O)N[C@@H](CCC(=O)O)C(=O)O)cc3)C[C@H]1CN2 [[6R]-methylene-THF, [6R]-5,10-methylenetetrahydrofolic acid] |  | marked influence on tumor volume; also recorded: intrinsic antitumor activity | in line with the vehicle group | slightly positive body weight development | positive effect on animal weight |
